# Laboratory results from patent US11434242B2, “Dopamine-b-hydroxylase inhibitors” (BIAL-PORTELA & Cª, S.A., priority 2017, dated 2022).
# Marks after values point to notes of the source that are not given here.
# Target: T1, Dopamine beta hydroxylase (Homo sapiens, UniProt P09172)
# T1 construct: 125 μl of plasma; tissue Instituto Português do Sangue Transplantação; host or cells: human plasma from healthy donors
# T1 sequence (P09172 40-617 limits assumed): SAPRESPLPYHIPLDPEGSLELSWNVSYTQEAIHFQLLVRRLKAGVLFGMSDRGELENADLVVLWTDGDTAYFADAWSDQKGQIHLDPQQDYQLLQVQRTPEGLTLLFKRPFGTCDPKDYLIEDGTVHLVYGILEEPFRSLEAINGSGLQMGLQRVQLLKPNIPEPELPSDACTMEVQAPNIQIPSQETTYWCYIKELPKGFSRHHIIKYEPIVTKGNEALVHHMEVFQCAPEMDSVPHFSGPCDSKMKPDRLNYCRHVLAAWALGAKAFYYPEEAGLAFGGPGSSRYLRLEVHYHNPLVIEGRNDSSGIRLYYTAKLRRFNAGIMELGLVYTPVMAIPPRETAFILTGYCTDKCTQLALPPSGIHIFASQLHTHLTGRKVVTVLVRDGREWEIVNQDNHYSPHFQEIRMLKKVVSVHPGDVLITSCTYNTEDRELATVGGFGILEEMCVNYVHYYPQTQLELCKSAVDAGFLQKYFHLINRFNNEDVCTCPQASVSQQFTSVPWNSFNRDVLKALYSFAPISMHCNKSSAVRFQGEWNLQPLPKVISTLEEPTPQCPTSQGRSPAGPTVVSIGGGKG
# Test: Dopamine beta hydroxylase activity in human plasma
# Format: biochemical
# Summary of the method: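 Healthy-donor human plasma pre-incubated 10 min at 37° C with compound at final 10, 100 or 1000 nM in pH 5.0 acetate buffer with ascorbate, fumarate, pargyline, N-ethylmaleimide, catalase and copper sulfate. Tyramine substrate then added for 45 min; octopamine formed was isolated by SCX cartridge, periodate-converted and read at 330 nm; activity given as % control.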
Structure (SMILES),"Plasma (0.01 μM), activity in % of control (inhibitor 0.01 μM)","Plasma (0.1 μM), activity in % of control (inhibitor 0.1 μM)","Plasma (1 μM), activity in % of control (inhibitor 1 μM)","Plasma (0.01 μM), activity in % of control, re-test (asterisked) (inhibitor 0.01 μM, re-tested under the same experimental conditions, asterisked data believed to be correct)","Plasma (0.1 μM), activity in % of control, re-test (asterisked) (inhibitor 0.1 μM, re-tested under the same experimental conditions, asterisked data believed to be correct)"
"O=C(Cc1[nH]c(=S)n2c1C[C@@H](c1c(F)ccc(Br)c1F)C2)N1CCOCC1 [Example 140, (S)-2-(6-(3-bromo-2,6-difluorophenyl)-3-thioxo-2,5,6,7-tetrahydro-3H-pyrrolo[1,2-c]imidazol-1-yl)-1-morpholinoethan-1-one]",73.1 % of control,26.8 % of control,–,–,–
"O=C(Cc1[nH]c(=S)n2c1C[C@H](c1c(F)cccc1F)C2)NC1CCCC1 [Example 76, (R)—N-cyclopentyl-2-(6-(2,6-difluorophenyl)-3-thioxo-2,5,6,7-tetrahydro-3H-pyrrolo[1,2-c]imidazol-1-yl)acetamide]",–,65.8 % of control,13.1 % of control,–,–
"Cn1c(CC(=O)NCC2CCCO2)c2n(c1=S)C[C@@H](c1c(F)c(F)cc(F)c1F)C2 (stereo in doubt) [Example 387, 2-((R)-2-methyl-6-(2,3,5,6-tetrafluorophenyl)-3-thioxo-2,5,6,7-tetrahydro-3H-pyrrolo[1,2-c]imidazol-1-yl)-N—(((S)-tetrahydrofuran-2-yl)methyl)acetamide]",92.9 % of control,43.7 % of control,–,–,–

# Next, values leading:
"Plasma (0.01 μM), activity in % of control (inhibitor 0.01 μM)","Plasma (0.1 μM), activity in % of control (inhibitor 0.1 μM)","Plasma (1 μM), activity in % of control (inhibitor 1 μM)","Plasma (0.01 μM), activity in % of control, re-test (asterisked) (inhibitor 0.01 μM, re-tested under the same experimental conditions, asterisked data believed to be correct)","Plasma (0.1 μM), activity in % of control, re-test (asterisked) (inhibitor 0.1 μM, re-tested under the same experimental conditions, asterisked data believed to be correct)",Structure (SMILES)
89.6 % of control,36.7 % of control,–,–,–,"O=C(Cc1[nH]c(=S)n2c1C[C@@H](c1c(F)ccc(Cl)c1F)C2)N1CCC(F)(F)CC1 [Example 111, (S)-2-(6-(3-chloro-2,6-difluorophenyl)-3-thioxo-2,5,6,7-tetrahydro-3H-pyrrolo[1,2-c]imidazol-1-yl)-1-(4,4-difluoropiperidin-1-yl)ethan-1-one]"
67.0 % of control,17.0 % of control,–,94.0* % of control,53.3* % of control,"Cn1c(CC(=O)NCC(F)(F)F)c2n(c1=S)C[C@@H](c1c(F)c(F)cc(F)c1F)C2 [Example 315, (R)-2-(2-methyl-6-(2,3,5,6-tetrafluorophenyl)-3-thioxo-2,5,6,7-tetrahydro-3H-pyrrolo[1,2-c]imidazol-1-yl)-N-(2,2,2-trifluoroethyl)acetamide]"
22.4 % of control,8.7 % of control,–,–,–,"O=C(CCc1[nH]c(=S)n2c1C[C@H](c1c(F)c(F)cc(F)c1F)C2)N1CCC(F)(F)CC1 [Example 206, (R)-1-(4,4-difluoropiperidin-1-yl)-3-(6-(2,3,5,6-tetrafluorophenyl)-3-thioxo-2,5,6,7-tetrahydro-3H-pyrrolo[1,2-c]imidazol-1-yl)propan-1-one]"
68.1 % of control,19.3 % of control,–,–,–,"Cn1c(CC(=O)N[C@H]2CCOC2)c2n(c1=S)C[C@H](c1c(F)ccc(Cl)c1F)C2 [Example 385, 2-((S)-6-(3-chloro-2,6-difluorophenyl)-2-methyl-3-thioxo-2,5,6,7-tetrahydro-3H-pyrrolo[1,2-c]imidazol-1-yl)-N—((S)-tetrahydrofuran-3-yl)acetamide]"
54.3 % of control,10.1 % of control,–,–,–,"CN(C(=O)Cc1c2n(c(=S)n1C)C[C@@]1(c3cc(Cl)ccc3F)C[C@@H]21)C1COC1 [Example 431, 2-((5aS,6aR)-5a-(5-chloro-2-fluorophenyl)-2-methyl-3-thioxo-2,3,5,5a,6,6a-hexahydrocyclopropa[3,4]pyrrolo[1,2-c]imidazol-1-yl)-N-methyl-N-(oxetan-3-yl)acetamide]"
